BigSolDB 2.1

C=CC(=O)N1CCC[C@@H](n2nc(-c3ccc(Oc4ccccc4)cc3)c3c(N)ncnc32)C1
solubility (mole fraction)
Settings	278.15 K	283.15 K	288.15 K	293.15 K	298.15 K	303.15 K	308.15 K	313.15 K	318.15 K	323.15 K
in 2-butanone	0.00549	0.00628	0.00726	0.00855	0.00988	0.0114	0.0132	0.0155	0.0181	0.0211
in MTBE	0.000225	0.000244	0.000277	0.000305	0.000331	0.00037	0.000404	0.000454	0.000497	0.00056
in acetone	0.00362	0.00417	0.00487	0.00573	0.00673	0.00794	0.00921	0.0108	0.0125	0.0144
in acetonitrile	0.000672	0.000819	0.000962	0.00122	0.00143	0.00174	0.0021	0.00256	0.00314	0.00367
in ethyl acetate	0.00312	0.00357	0.00403	0.00475	0.00548	0.00618	0.00722	0.0083	0.00952	0.0107
in isopropanol	0.000409	0.000547	0.000734	0.000947	0.00123	0.00165	0.00217	0.00278	0.00363	0.00455
in n-butanol	0.00127	0.00163	0.00206	0.00261	0.00331	0.00423	0.0054	0.00694	0.00894	0.0115
